From ChEMBL document CHEMBL6127073, “Utilizing artificial intelligence for precision exploration of N protein targeting phenanthridine sars-cov-2 inhibitors: A novel approach” (Eur J Med Chem, 2024)
Activity calls are given as the source filed them. The rule behind the calls is not given here.

Columns and labels:
Nucleoprotein [1] = molecular target: T1, Nucleoprotein (Severe acute respiratory syndrome coronavirus 2, UniProt P0DTC9); assay: Binding affinity to SARS-CoV-2 N-pro assessed as dissociation constant by SPR analysis
SARS-CoV-2 [2] = assay: Antiviral activity against SARS-CoV-2 107 infected in African green monkey Vero E6 cells assessed as increase in cell survival rate at 50 uM pre-infected with virus followed by compound addition for 2 hrs and measured after 72 hrs by MTT assay; format: functional, organism-based; conditions: Severe acute respiratory syndrome coronavirus 2, time 74.0 hrs
[3] = molecular target: Nucleoprotein (Severe acute respiratory syndrome coronavirus 2) (UniProt P0DTC9); assay: Inhibition of ssRNA binding to SARS-CoV-2 N-pro at 100 uM by MST analysis relative to control
Nucleoprotein [4] = molecular target: T1, Nucleoprotein; assay: Binding affinity to SARS-CoV-2 N-pro assessed as dissociation constant in presence of ssRNA by MST analysis
[5] = Cytotoxicity against African green monkey Vero E6 cells after 72 hrs by CCK8 assay; format: toxicity, cell-based, Vero C1008; conditions: chlorocebus sabaeus
Nucleoprotein [6] = molecular target: T1, Nucleoprotein; assay: Binding affinity to wild type SARS-CoV-2 N-pro assessed as dissociation constant by MST analysis
[7] = Selectivity index, ratio of CC50 for cytotoxicity against African green monkey Vero E6 cells to EC50 for antiviral activity against SARS-CoV-2 107 infected in African green monkey Vero E6 cells; format: toxicity, cell-based; conditions: read-out: Ratio CC50/EC50
SARS-CoV-2 [8] = assay: Antiviral activity against SARS-CoV-2 107 infected in African green monkey Vero E6 cells assessed as inhibition of viral replication pre-infected with virus followed by compound addition and measured after 72 hrs by inverted microscopic analysis; format: functional, organism-based; conditions: Severe acute respiratory syndrome coronavirus 2, 107, Vero C1008, 72 h
SARS-CoV-2 [9] = assay: Antiviral activity against SARS-CoV-2 107 infected in African green monkey Vero E6 cells assessed as inhibition of virus induced cytopathic effect by neutral red staining based analysis; format: functional, organism-based; conditions: Severe acute respiratory syndrome coronavirus 2, time 74.0 hrs
Nucleoprotein [10] = molecular target: T1, Nucleoprotein; assay: Binding affinity to SARS-CoV-2 N-pro assessed as dissociation constant by MST analysis

Compound | Kd (Nucleoprotein [1]) [µM] | also measured
CCN1Cc2cc(OC)c(OC)cc2-c2cccc(NCc3csc4ccc(Cl)cc34)c21 | 97.7 | –
CCN1Cc2cc(OC)c(OC)cc2-c2cccc(Nc3ncnc4c3nnn4Cc3ccccc3)c21 | 0.35 | Activity (SARS-CoV-2 [2]): Active; inhibition [3]: 100%; Kd (Nucleoprotein [4]): 83.7 µM; CC50 at 72 h [5]: > 200 µM; Kd (Nucleoprotein [6]): 5.4 µM; selectivity ratio [7]: > 17.7; EC50 (SARS-CoV-2 [8]): 11.3 µM; Activity (SARS-CoV-2 [9]): Active; Kd (Nucleoprotein [10]): 0.73 µM
CCN1Cc2cc(OC)c(OC)cc2-c2cccc(NC(=O)Nc3cccc4c3N(CC)Cc3cc(OC)c(OC)cc3-4)c21 | 4.58 | –
CCn1c(=O)c2cc(OC)c(OC)cc2c2cccc(/C=N/C3C=CNN3)c21 (stereo unspecified) | 2.53 | –
CCn1c(=O)c2cc(OC)c(OC)cc2c2cccc(C3C4=C(CCCC4=O)N(c4ccccc4)C4=C3C(=O)CCC4)c21 | 168 | –
CCN1Cc2cc(OC)c(OC)cc2-c2cccc(NC(=O)c3cc([N+](=O)[O-])cc([N+](=O)[O-])c3)c21 | 37.9 | –
CCN1Cc2cc(OC)c(OC)cc2-c2cccc(NC(=O)Cc3ccccc3)c21 | 5.31 | –
CCN1Cc2cc(OC)c(OC)cc2-c2cccc(NCc3ccc(C4(C(F)(F)F)N=N4)cc3)c21 | 37 | –
CCn1c(=O)c2cc(OC)c(OC)cc2c2cccc(/N=C/c3c4ccccc4cc4ccccc34)c21 | 9.71 | –
CCN1Cc2cc(OC)c(OC)cc2-c2cccc(Nc3ccc4c(c3)oc3ccccc34)c21 | 44.1 | –
CCn1c(=O)c2cc(OC)c(OC)cc2c2cccc(/C=N/c3nc[nH]n3)c21 | 63.7 | –
CCn1c(=O)c2cc(OC)c(OC)cc2c2cccc(NS(=O)(=O)c3ccc(Cl)cc3)c21 | 5.27 | –
